Like-named read-outs stand apart in the source and are kept apart here. Where only a bound is given, the exact number is not on record here.

One assay concerns the target Pim-1 kinase (Homo sapiens, UniProt P11309). Briefly: Promega Kinase-Glo Pim-1 kinase inhibition assay.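 Note: in vitro Pim-1 reaction run 2 h at 30 °C, then leftover ATP measured by luciferase luminescence, where signal falls as kinase activity rises.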 The class given is biochemical.
In a further assay the test system is K562 Cells. Briefly: Cell growth inhibition, Cell-Titer-Glo, 96 hours. The class given is cell-based. As to conditions: Homo sapiens.
Assay [1] deals with phospho-Bad (S112) in MV-4-11 cells. Briefly: phospho-Bad (S112) Western blot in MV-4-11 cells. As to conditions: Homo sapiens, MV4-11, 1 hr treatment, HCl salts, read-out: EC50 on phosphorylation of Bad (S112). The class given is cell-based. From the text:
One illustrative manner to determine the effect of Pim-1 inhibitors on the activity of the Pim-1 kinase is to measure the phosphorylation levels of the protein Bad at serine residue 112 (S112) (phospho-Bad or pBad). Pim-1 is known to cause the phosphorylation of Bad at S112 in order to inactivate the protein and inhibit its association with anti-apoptotic Bcl-2 family members, thereby allowing these Bcl-2 family members to further inhibit apoptotic signals.
Briefly, MV-4-11 (biphenotypic B myelomonocytic leukemia) cells were plated into T25 flasks in serum free media (SFM) at 1.5×10^5 cells/ml and allowed to grow for 24 hrs. After 24 hrs Pim-1 inhibitors at 10, 5, 1, 0.5, 0.1, or 0.01 μM concentrations were added to individual flasks. Treatment with the Pim-1 inhibitors continued for a duration of 1 hr. Cells were harvested after the 1 hr treatment and cell lysates were made from each sample. Equal amounts of total protein from the lysates were loaded onto a 10% Tris-glycine gel (Invitrogen) for SDS-PAGE analysis. […] In order to calculate the EC50 of inhibitors on phosphorylation of Bad (S112), the levels of total Bad protein were determined. […] Densitometry was used to quantitate the levels of each band on the Western blots and used to determine the EC50 of the Pim-1 inhibitors to alter the phospho-Bad protein levels.
A general note: A western blot detects proteins with antibodies after separation by electrophoresis.

The next assay has as its system PC-3 Cells. Briefly: Cell growth inhibition, Cell-Titer-Glo, 96 hours. The assay is classed as cell-based. As to conditions: Homo sapiens.
Another assay addresses Plk3 (Homo sapiens, UniProt Q9H4B4). Briefly: Radiometric kinase panel selectivity assay. The assay is classed as biochemical. More on the design: dose or concentration left out as unconfirmed.
A further assay deals with Able (Homo sapiens, UniProt P00519). Briefly: Radiometric kinase panel selectivity assay. The assay is classed as biochemical. More on the design: dose or concentration left out as unconfirmed.
The next assay concerns the target T1, Nek2 (Homo sapiens, UniProt P51955).
T1 sequence (P51955 1-445): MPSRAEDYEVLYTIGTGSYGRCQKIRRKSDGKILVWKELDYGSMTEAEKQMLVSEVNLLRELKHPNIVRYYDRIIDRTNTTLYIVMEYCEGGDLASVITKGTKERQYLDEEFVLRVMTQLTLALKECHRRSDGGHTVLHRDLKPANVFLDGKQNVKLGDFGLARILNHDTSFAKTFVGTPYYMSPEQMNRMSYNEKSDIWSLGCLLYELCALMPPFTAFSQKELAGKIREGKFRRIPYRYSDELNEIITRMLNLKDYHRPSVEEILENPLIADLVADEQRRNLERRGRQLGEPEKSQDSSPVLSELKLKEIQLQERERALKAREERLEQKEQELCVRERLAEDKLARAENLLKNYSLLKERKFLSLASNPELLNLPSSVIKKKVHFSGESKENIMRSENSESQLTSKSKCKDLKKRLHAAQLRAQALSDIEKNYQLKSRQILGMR
In words: Radiometric kinase panel selectivity assay. The class given is biochemical. More on the design: dose or concentration left out as unconfirmed.

The target in another assay is c-Kit (Homo sapiens, UniProt P10721). Briefly: Radiometric kinase panel selectivity assay. The class given is biochemical. More on the design: dose or concentration left out as unconfirmed.
For a further assay, the target named is Jak2 (Homo sapiens, UniProt O60674). Briefly: Radiometric kinase panel selectivity assay. The class given is biochemical. More on the design: dose or concentration left out as unconfirmed.
In a further assay the target is CDK1 (Homo sapiens, UniProt P06493). Briefly: Radiometric kinase panel selectivity assay. The class given is biochemical. On the set-up: dose or concentration left out as unconfirmed.
Another assay concerns the target EGFR (Homo sapiens, UniProt P00533). In words: Radiometric kinase panel selectivity assay. The class given is biochemical. On the set-up: dose or concentration left out as unconfirmed.
In a further assay the target is CDK2 (Homo sapiens, UniProt P24941). Briefly: Radiometric kinase panel selectivity assay. On the set-up: dose or concentration left out as unconfirmed. The class given is biochemical.
A further assay addresses T2, Aurora-A (Homo sapiens, UniProt O14965).
T2 sequence (O14965 1-403): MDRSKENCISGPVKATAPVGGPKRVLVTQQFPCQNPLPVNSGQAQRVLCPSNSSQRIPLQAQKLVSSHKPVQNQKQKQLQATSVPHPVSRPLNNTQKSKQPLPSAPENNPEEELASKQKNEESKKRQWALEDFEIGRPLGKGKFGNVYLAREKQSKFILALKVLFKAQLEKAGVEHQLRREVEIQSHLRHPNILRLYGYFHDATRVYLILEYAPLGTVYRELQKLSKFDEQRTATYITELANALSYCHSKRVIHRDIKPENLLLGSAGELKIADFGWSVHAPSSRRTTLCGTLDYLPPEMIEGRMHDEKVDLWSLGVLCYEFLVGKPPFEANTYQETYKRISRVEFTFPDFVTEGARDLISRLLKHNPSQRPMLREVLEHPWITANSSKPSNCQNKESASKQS
In words: Radiometric kinase panel selectivity assay. The class given is biochemical. On the set-up: dose or concentration left out as unconfirmed.

Where [2] appears, read: Table VIII (results), values in nM, read-out: IC50(Kinase).
The mark [3] stands for this setting: K562, Table IX (results), read-out: IC50 (K562).
Where [4] appears, read: Table IX (results), read-out: IC50 (PC-3).
The mark [5] stands for this setting: Table VIII (results), values in uM, read-out: IC50(Kinase).
[6] abbreviates: read-out: IC50 PC-3 Cells (inhibit cell growth to 50% of untreated), Table VI.
Setting [7] is: IC50 (Kinase inhibitory activity), Table V, Pim-1 kinase, Kinase-Glo.
Where [8] appears, read: K562, read-out: IC50 K562 Cells (inhibit cell growth to 50% of untreated), Table VI.
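Throughout, for IC50 (K562): luminescent ATP signal as an index of viable cell number, drug-treated versus cells given an equal volume of DMSO vehicle.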
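Throughout, for IC50 (PC-3): luciferase luminescence reflecting cellular ATP, used as a proxy for cell number, with compound-treated cells compared against DMSO vehicle control wells.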

Chain of Pim-1 kinase (P11309 whole entry): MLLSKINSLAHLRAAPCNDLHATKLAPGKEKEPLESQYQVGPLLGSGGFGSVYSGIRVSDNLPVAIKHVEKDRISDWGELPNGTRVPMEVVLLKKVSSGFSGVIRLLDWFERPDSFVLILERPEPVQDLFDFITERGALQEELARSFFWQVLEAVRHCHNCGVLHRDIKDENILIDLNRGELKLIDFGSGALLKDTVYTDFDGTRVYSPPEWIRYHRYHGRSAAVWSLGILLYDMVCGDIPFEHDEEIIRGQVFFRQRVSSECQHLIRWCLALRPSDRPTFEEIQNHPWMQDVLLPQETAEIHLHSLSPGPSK
Chain of Plk3 (Q9H4B4 whole entry, species assumed): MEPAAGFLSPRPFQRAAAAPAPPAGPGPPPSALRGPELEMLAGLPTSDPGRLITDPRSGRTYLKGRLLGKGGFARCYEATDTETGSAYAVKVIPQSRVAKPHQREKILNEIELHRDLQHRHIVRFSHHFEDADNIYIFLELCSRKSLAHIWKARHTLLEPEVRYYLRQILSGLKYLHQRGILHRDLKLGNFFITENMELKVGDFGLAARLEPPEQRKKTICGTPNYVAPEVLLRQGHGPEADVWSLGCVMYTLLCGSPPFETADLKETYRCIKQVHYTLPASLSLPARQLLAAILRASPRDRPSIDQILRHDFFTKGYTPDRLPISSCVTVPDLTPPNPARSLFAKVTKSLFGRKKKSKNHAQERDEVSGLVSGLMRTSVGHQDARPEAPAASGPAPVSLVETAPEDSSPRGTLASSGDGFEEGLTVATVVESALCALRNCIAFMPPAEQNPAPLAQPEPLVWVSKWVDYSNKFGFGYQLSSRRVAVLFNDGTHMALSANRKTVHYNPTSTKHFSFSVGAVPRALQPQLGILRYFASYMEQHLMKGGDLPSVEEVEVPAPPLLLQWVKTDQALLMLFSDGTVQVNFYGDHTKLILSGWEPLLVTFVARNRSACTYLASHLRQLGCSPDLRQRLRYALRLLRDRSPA
Chain of Able (P00519 whole entry): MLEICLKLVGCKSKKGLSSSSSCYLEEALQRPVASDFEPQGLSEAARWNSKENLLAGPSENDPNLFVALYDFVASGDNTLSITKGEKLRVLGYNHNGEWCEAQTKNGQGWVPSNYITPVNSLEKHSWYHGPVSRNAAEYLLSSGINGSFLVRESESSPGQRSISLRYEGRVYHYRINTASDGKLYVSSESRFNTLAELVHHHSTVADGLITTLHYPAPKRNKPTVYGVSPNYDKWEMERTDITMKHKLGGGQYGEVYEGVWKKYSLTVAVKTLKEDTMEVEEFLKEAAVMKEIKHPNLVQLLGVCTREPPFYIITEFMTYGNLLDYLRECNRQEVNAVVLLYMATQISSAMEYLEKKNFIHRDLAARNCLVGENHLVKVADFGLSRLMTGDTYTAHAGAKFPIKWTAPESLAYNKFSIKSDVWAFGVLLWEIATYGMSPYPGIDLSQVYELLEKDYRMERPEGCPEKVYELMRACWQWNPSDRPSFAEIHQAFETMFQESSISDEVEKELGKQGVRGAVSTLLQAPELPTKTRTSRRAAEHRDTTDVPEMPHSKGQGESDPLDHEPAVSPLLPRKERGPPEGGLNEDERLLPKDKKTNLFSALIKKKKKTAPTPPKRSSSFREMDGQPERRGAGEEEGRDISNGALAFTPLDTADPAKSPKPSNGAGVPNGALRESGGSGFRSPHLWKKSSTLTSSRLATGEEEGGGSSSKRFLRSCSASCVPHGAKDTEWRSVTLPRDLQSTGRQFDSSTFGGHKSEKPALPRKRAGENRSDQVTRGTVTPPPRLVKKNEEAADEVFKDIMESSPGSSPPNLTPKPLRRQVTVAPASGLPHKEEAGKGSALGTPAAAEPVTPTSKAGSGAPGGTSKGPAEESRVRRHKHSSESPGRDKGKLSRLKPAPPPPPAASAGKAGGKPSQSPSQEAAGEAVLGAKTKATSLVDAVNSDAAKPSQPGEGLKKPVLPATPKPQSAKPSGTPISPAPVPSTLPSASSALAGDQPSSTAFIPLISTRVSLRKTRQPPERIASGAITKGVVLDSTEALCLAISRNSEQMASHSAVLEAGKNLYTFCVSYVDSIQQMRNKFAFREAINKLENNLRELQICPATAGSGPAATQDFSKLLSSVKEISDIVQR
Chain of EGFR (P00533 25-1210, species assumed): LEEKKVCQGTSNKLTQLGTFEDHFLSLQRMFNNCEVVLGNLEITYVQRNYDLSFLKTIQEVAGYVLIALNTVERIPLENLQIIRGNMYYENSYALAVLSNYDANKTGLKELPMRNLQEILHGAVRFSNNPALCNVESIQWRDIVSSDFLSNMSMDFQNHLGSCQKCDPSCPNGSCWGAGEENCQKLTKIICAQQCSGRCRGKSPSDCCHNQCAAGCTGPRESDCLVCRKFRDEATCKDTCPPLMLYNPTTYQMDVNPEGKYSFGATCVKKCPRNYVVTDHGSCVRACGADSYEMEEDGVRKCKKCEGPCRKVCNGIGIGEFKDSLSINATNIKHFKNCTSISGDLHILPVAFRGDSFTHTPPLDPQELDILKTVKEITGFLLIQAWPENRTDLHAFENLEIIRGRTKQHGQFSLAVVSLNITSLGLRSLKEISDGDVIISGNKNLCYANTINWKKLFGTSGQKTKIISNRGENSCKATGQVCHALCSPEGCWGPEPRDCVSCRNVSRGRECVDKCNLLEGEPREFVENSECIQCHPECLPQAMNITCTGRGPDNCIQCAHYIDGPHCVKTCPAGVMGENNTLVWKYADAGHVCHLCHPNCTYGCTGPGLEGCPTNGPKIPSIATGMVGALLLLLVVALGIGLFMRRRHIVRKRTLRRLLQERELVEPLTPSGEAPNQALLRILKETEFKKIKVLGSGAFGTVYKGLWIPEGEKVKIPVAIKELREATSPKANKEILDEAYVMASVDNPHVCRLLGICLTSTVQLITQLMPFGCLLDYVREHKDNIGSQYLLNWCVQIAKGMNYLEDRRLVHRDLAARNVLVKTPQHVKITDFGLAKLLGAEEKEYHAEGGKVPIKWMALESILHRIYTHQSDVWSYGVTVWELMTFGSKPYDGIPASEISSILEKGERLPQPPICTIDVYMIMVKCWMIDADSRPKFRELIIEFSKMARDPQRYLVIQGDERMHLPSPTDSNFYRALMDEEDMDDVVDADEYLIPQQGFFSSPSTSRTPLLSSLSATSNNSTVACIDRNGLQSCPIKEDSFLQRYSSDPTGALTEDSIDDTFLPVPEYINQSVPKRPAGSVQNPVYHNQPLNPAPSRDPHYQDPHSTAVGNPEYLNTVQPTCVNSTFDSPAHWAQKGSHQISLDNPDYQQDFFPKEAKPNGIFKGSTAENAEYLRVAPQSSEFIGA
Chain of c-Kit (P10721 26-976): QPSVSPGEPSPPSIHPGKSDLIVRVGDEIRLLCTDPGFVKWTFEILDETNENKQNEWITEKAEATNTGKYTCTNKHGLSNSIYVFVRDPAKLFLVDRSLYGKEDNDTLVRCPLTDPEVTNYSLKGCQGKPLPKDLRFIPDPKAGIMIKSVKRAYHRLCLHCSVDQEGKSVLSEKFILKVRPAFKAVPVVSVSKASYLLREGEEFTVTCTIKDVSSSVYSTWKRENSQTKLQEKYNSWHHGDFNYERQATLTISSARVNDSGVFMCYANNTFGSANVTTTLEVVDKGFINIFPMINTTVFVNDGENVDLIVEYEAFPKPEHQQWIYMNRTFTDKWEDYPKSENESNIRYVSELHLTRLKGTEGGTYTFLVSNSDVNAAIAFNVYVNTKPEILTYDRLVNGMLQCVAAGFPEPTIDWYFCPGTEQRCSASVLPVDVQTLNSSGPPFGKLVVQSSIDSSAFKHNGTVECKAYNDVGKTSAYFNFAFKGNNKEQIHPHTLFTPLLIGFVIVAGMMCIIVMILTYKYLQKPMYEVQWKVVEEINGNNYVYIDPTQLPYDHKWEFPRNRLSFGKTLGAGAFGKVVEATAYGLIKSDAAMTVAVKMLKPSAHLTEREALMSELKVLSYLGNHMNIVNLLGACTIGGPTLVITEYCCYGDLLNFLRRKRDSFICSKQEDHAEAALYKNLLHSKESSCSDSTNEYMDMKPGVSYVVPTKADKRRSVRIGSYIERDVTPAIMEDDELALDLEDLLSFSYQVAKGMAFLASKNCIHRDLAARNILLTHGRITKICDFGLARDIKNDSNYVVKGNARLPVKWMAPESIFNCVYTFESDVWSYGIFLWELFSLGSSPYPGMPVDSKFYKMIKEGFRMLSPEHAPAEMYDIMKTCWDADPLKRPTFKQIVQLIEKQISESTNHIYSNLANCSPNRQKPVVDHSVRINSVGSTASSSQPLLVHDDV
Chain of CDK1 (P06493 whole entry, species assumed): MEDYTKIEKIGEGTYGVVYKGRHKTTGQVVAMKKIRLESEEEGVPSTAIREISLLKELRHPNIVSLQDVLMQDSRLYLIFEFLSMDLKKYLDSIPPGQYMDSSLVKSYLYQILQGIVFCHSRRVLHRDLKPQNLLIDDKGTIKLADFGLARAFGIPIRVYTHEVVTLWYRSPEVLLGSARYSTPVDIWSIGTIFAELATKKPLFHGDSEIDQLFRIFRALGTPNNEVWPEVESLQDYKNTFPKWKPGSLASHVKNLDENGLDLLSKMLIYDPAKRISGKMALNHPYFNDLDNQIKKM
Chain of CDK1 (P14635 whole entry partner, species assumed): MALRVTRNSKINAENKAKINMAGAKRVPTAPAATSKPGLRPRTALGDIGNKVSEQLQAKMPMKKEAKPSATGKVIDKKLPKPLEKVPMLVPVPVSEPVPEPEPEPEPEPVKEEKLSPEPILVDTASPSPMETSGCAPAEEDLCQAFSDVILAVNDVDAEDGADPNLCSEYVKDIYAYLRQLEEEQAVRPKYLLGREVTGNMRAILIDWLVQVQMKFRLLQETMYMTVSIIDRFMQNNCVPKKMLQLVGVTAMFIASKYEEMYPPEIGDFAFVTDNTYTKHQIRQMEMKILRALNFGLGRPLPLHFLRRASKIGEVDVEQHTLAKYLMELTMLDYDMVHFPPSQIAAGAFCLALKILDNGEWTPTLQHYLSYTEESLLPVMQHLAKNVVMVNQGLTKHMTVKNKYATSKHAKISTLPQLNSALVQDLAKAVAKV

In general, IC50 refers to the concentration that gives 50% inhibition. In general, EC50 refers to the concentration that produces a half-maximal response. For the compound `CC[C@H](N)COc1ccc2ncc(-c3cccc(OC(F)(F)F)c3)n2n1` [Compound 7-19, (S)-1-(3-(3-(trifluoromethoxy)phenyl)imidazo[1,2-b]pyridazin-6-yloxy)butan-2-amine], the IC50 at Pim-1 kinase (setting [2]) is 293 nM; in the assay with K562 Cells (setting [3]), 5.84 µM. For the same compound, the EC50 in [1] came out at 0.635 µM.

Regarding `Fc1ccc(-c2ccc3ncc(-c4ccc(F)cc4)n3n2)cc1` [Compound 7-7], the IC50 in the assay on PC-3 Cells (setting [4]) was 87.2 µM; on Pim-1 kinase (setting [5]), 9760 nM; with K562 Cells (setting [3]), 271 µM.

As to `Cc1cc2ncc(-c3cccc(OC(F)(F)F)c3)n2nc1NCC1CCN(C)CC1` [Compound 7-37, 7-Methyl-N-((1-methylpiperidin-4-yl)methyl)-3-(3-(trifluoromethoxy)phenyl)-imidazo[1,2-b]pyridazin-6-amine], the IC50 in the assay on PC-3 Cells (setting [4]) stood at 8.95 µM; on Pim-1 kinase (setting [2]), 13 nM; with K562 Cells (setting [3]) it was 3.89 µM.

With `CN1CCC(CNc2ccc3ncc(-c4cccc(OC(F)(F)F)c4)n3n2)CC1` [Compound 7-29], the “activity against Plk3” value at Plk3 is given as “no significant activity”. Also, the IC50 in the assay on PC-3 Cells (setting [4]) amounted to 4.83 µM; in the assay with K562 Cells (Table IX (results), read-out: IC50 (K562)), 2.29 µM. Besides, the “activity against Able” value on Able is listed as “no significant activity”. Further, the “activity against Nek2” value at Nek2 is on record as “no significant activity”. At c-Kit, the “activity against c-Kit” value is on record as “no significant activity”. Moreover, the “activity against Jak2” value on Jak2 is “no significant activity”. Moreover, the “activity against CDK1” value on CDK1 is recorded as “no significant activity”. On EGFR, the “activity against EGFR” value was “no significant activity”. For the same compound, the “activity against CDK2” value at CDK2 is on record as “no significant activity”. Also, the “activity against Aurora-A” value at Aurora-A is given as “no significant activity”. In addition, the EC50 in [1] is 0.0079 µM.

As for `O=C(C1CC1)N1CCC(CNc2ccc3ncc(-c4cccc(OC(F)(F)F)c4)n3n2)CC1` [Compound 7-36, Cyclopropyl(4-((3-(3-(trifluoromethoxy)phenyl)imidazo[1,2-b]pyridazin-6-ylamino)methyl)piperidin-1-yl)methanone], the IC50 was determined as 33.3 µM in the assay with PC-3 Cells (setting [4]), 73 nM at Pim-1 kinase (setting [2]) and 6.91 µM with K562 Cells (setting [3]).

In the case of `FC(F)(F)Oc1cccc(-c2cnc3ccc(NCCN4CCCC4)nn23)c1` [Compound 7-30, N-(2-(pyrrolidin-1-yl)ethyl)-3-(3-(trifluoromethoxy)phenyl)imidazol[1,2-b]pyridazin-6-amine], the half-maximal inhibitory concentration (IC50) in the assay with PC-3 Cells (setting [4]) was found to be 9.26 µM; on Pim-1 kinase (setting [2]), 761 nM; in the assay with K562 Cells (setting [3]), 9.14 µM.

With `CCC(CO)Nc1ccc2ncc(-c3ccc(NS(C)(=O)=O)cc3)n2n1` (stereo not drawn) [Compound 1-3], the IC50 stood at 39 µM in the assay on PC-3 Cells (setting [6]), 5350 nM at Pim-1 kinase (setting [7]) and 80.2 µM in the assay on K562 Cells (setting [8]).

As to `CCC(CO)Nc1ccc2ncc(-c3ccc(N(C)C)cc3)n2n1` (stereo not drawn) [Compound 7-1], the IC50 is 29.2 µM in the assay with PC-3 Cells (setting [4]); 29.2 µM in the assay on PC-3 Cells (setting [6]); 3990 nM at Pim-1 kinase (setting [7]); 3990 nM on Pim-1 kinase (setting [5]); 67.1 µM in the assay on K562 Cells (setting [3]); 67.1 µM in the assay with K562 Cells (setting [8]).

`NS(=O)(=O)c1ccc(CNc2ccc3ncc(-c4ccc(CCC(=O)O)cc4)n3n2)cc1` [Compound 1-1]: the IC50 with PC-3 Cells (setting [6]) was over 300 µM; on Pim-1 kinase (setting [7]) it was 4470 nM; with K562 Cells (setting [8]) it was over 300 µM.

For `Fc1cccc(-c2cnc3ccc(NC4CCCC4)nn23)c1` [Compound 7-15, N-cyclopentyl-3-(3-fluorophenyl)imidazo[1,2-b]pyridazin-6-amine], the figures for the IC50 with PC-3 Cells (setting [4]), at Pim-1 kinase (setting [5]) and in the assay with K562 Cells (setting [3]) were 70.2 µM, 5350 nM and 20.8 µM, respectively.

Source of the values: patent publication US20120058997A1, “IMIDAZO[1,2-B]PYRIDAZINE AND PYRAZOLO[1,5-A]PYRIMIDINE DERIVATIVES AND THEIR USE AS PROTEIN KINASE INHIBITORS” (SuperGen, Inc., priority 2006, published 2012).
